Structures can show the parent of a compound that is named as a salt.
molecular target: T1, c-kit autophosphorylation (Phospho c-Kit Tyr721) in HMC 1.1 (exon 11/13) cells, V654A (Homo sapiens, UniProt P10721, V560G/V654A); assay: pKIT Meso Scale Discovery (MSD) assay, inhibition of autophosphorylation of KIT, HMC1.1_V654A; assay type: cell-based; conditions: Table 1, cell line not named for Table 1, b1056 names pKIT HMC1.1_V654A, read-out: Code (IC50 for inhibition of autophosphorylation of KIT, pKIT MSD assay)
T1 construct: endogenous in cells; host or cells: HMC 1.1 (exon 11/13) cells
Summary of the method: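 HMC1.1 cells were serum-starved for 4 h in serum-free, iron-free, phenol red-free IMDM, then treated with compound in dose-response for 90 min at 37 °C. Staurosporine and DMSO served as controls. Lysates were analysed by MSD electrochemiluminescence immunoassay for phospho-c-Kit Tyr721, and % inhibition of autophosphorylation was derived.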

T1 sequence (P10721 26-976 V560G/V654A): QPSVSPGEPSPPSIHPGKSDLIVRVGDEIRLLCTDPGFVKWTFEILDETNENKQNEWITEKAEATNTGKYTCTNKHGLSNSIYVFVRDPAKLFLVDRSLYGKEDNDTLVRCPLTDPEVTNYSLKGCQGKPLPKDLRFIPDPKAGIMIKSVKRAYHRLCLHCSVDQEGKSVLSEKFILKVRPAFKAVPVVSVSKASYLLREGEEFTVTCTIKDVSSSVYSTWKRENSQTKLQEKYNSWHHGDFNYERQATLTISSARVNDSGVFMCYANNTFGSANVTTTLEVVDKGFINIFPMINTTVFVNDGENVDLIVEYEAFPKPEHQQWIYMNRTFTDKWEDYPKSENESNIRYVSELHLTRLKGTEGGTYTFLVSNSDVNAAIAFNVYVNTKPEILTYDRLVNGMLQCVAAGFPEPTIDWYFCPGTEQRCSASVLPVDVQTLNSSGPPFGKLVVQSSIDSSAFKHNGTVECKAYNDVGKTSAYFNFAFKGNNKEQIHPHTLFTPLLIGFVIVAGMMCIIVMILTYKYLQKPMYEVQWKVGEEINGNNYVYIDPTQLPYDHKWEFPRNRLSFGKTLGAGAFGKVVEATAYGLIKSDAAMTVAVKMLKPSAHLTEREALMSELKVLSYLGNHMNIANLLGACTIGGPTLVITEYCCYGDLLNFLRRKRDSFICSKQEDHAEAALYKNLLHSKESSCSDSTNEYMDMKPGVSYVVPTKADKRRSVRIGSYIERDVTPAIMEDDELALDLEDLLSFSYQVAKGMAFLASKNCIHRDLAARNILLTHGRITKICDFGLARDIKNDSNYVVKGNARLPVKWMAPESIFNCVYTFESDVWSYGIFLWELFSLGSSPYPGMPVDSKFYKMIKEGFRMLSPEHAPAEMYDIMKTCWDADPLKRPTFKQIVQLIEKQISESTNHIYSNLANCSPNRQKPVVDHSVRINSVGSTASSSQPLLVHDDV

| SMILES | IC50 [nM] |
| --- | --- |
| CNc1cc(Nc2cc(N)nc(C(F)F)n2)ncc1C(=O)NCC#N [Compound 22, 6-((6-amino-2-(difluoromethyl)pyrimidin-4-yl)amino)-N-(cyanomethyl)-4-(methylamino)nicotinamide] | > 40 |
| CNC(=O)c1cnc(Nc2cc(N)nc(C(F)F)n2)cc1NC1CC1 [Compound 23, 6-((6-amino-2-(difluoromethyl)pyrimidin-4-yl)amino)-4-(cyclopropylamino)-N-methylnicotinamide] | < 10 |
| CNc1cc(Nc2cc(N)nc(C(F)F)n2)ncc1C(=O)NC1CC1 [Compound 24, 6-((6-amino-2-(difluoromethyl)pyrimidin-4-yl)amino)-N-cyclopropyl-4-(methylamino)nicotinamide] | < 10 |
| CCCNc1cc(Nc2cc(N)nc(C(F)F)n2)ncc1C(=O)NC [Compound 26, 6-((6-amino-2-(difluoromethyl)pyrimidin-4-yl)amino)-N-methyl-4-(propylamino)nicotinamide] | < 10 |
| CNc1cc(Nc2cc(N)nc(C(F)F)n2)ncc1C(=O)NC(C)C [Compound 29, 6-((6-amino-2-(difluoromethyl)pyrimidin-4-yl)amino)-N-isopropyl-4-(methylamino)nicotinamide] | < 10 |
| CCNC(=O)c1cnc(Nc2cc(N)nc(C(F)F)n2)cc1NCC [Compound 30, 6-((6-amino-2-(difluoromethyl)pyrimidin-4-yl)amino)-N-ethyl-4-(ethylamino)nicotinamide] | 10 to 40 |
| [2H]C([2H])([2H])NC(=O)c1cnc(Nc2cc(N)nc(C(F)F)n2)cc1NC1CC1 [Compound 31, 6-((6-amino-2-(difluoromethyl)pyrimidin-4-yl)amino)-4-(cyclopropylamino)-N-(methyl-d3)nicotinamide] | < 10 |
| Cn1cc(-c2cnc(Nc3cc(N)nc(CF)n3)cc2OC2CC2)cn1 [Compound 32, N4-(4-cyclopropoxy-5-(1-methyl-1H-pyrazol-4-yl)pyridin-2-yl)-2-(fluoromethyl)pyrimidine-4,6-diamine] | < 10 |
| CC(C)Oc1cc(Nc2cc(N)nc(CF)n2)ncc1-c1cnn(C)c1 [Compound 33, 2-(fluoromethyl)-N4-(4-isopropoxy-5-(1-methyl-1H-pyrazol-4-yl)pyridin-2-yl)pyrimidine-4,6-diamine] | < 10 |
| CCOc1cc(Nc2cc(N)nc(C(F)F)n2)ncc1-c1cnn(C)c1 [Compound 34, 2-(difluoromethyl)-N4-(4-ethoxy-5-(1-methyl-1H-pyrazol-4-yl)pyridin-2-yl)pyrimidine-4,6-diamine] | < 10 |
| CNC(=O)c1cnc(Nc2cc(N)nc(CF)n2)cc1N[C@@H]1CCOC1 [Compound 35, (R)-6-((6-amino-2-(fluoromethyl)pyrimidin-4-yl)amino)-N-methyl-4-((tetrahydrofuran-3-yl)amino)nicotinamide] | > 40 |
| CNC(=O)c1cnc(Nc2cc(N)nc(CF)n2)cc1N[C@H]1CCOC1 [Compound 36, (S)-6-((6-amino-2-(fluoromethyl)pyrimidin-4-yl)amino)-N-methyl-4-((tetrahydrofuran-3-yl)amino)nicotinamide] | > 40 |
| CNC(=O)c1cnc(Nc2cc(N)nc(C(F)F)n2)cc1NC1CCC1 [Compound 37, 6-((6-amino-2-(difluoromethyl)pyrimidin-4-yl)amino)-4-(cyclobutylamino)-N-methylnicotinamide] | < 10 |
| CCNC(=O)c1cnc(Nc2cc(N)nc(C(F)F)n2)cc1NC1CC1 [Compound 38, 6-((6-amino-2-(difluoromethyl)pyrimidin-4-yl)amino)-4-(cyclopropylamino)-N-ethylnicotinamide] | < 10 |
| CCNc1cc(Nc2cc(N)nc(C(F)F)n2)ncc1C(=O)NC1CC1 [Compound 39, 6-((6-amino-2-(difluoromethyl)pyrimidin-4-yl)amino)-N-cyclopropyl-4-(ethylamino)nicotinamide] | < 10 |
| CNC(=O)c1cnc(Nc2cc(N)nc(C(F)F)n2)cc1NC1COC1 [Compound 42, 6-((6-amino-2-(difluoromethyl)pyrimidin-4-yl)amino)-N-methyl-4-(oxetan-3-ylamino)nicotinamide] | 10 to 40 |
| CNC(=O)c1cnc(Nc2cc(N)nc(C(F)F)n2)cc1NCC(C)C [Compound 43, 6-((6-amino-2-(difluoromethyl)pyrimidin-4-yl)amino)-4-(isobutylamino)-N-methylnicotinamide] | < 10 |
| CNC(=O)c1cnc(Nc2cc(N)nc(CF)n2)cc1N[C@@H](C)C(F)F [Compound 46, (S)-6-((6-amino-2-(fluoromethyl)pyrimidin-4-yl)amino)-4-((1,1-difluoropropan-2-yl)amino)-N-methylnicotinamide] | < 10 |
| CNC(=O)c1cnc(Nc2cc(N)nc(CF)n2)cc1N[C@H](C)C(F)F [Compound 47, (R)-6-((6-amino-2-(fluoromethyl)pyrimidin-4-yl)amino)-4-((1,1-difluoropropan-2-yl)amino)-N-methylnicotinamide] | < 10 |
| COc1cc(Nc2cc(N)nc(CF)n2)ncc1-c1cnn(C2CNC2)c1 [Compound 50, N4-(5-(1-(azetidin-3-yl)-1H-pyrazol-4-yl)-4-methoxypyridin-2-yl)-2-(fluoromethyl)pyrimidine-4,6-diamine] | > 40 |
| CC(C)Oc1cc(Nc2cc(N)nc([C@H](C)F)n2)ncc1-c1cnn(C)c1 [Compound 51, (S)-2-(1-fluoroethyl)-N4-(4-isopropoxy-5-(1-methyl-1H-pyrazol-4-yl)pyridin-2-yl)pyrimidine-4,6-diamine] | < 10 |
| COc1cc(Nc2cc(N)nc(C(F)F)n2)ncc1-c1cnn(C2CC2)c1 [Compound 52, N4-(5-(1-cyclopropyl-1H-pyrazol-4-yl)-4-methoxypyridin-2-yl)-2-(difluoromethyl)pyrimidine-4,6-diamine] | < 10 |
| Cn1cc(-c2cnc(Nc3cc(N)nc(C(F)F)n3)cc2OC2CC2)cn1 [Compound 53, N4-(4-cyclopropoxy-5-(1-methyl-1H-pyrazol-4-yl)pyridin-2-yl)-2-(difluoromethyl)pyrimidine-4,6-diamine] | < 10 |
| N#CCNC(=O)c1cnc(Nc2cc(N)nc(C(F)F)n2)cc1NC1CC1 [Compound 54, 6-((6-amino-2-(difluoromethyl)pyrimidin-4-yl)amino)-N-(cyanomethyl)-4-(cyclopropylamino)nicotinamide] | 10 to 40 |
| COc1cc(Nc2cc(N)nc(C(F)F)n2)ncc1-c1cnn(C(C)C)c1 [Compound 56] | < 10 |
| Nc1cc(Nc2cc(NC3CC3)c(C(=O)NC3CC3)cn2)nc(C(F)F)n1 [Compound 57, 6-((6-amino-2-(difluoromethyl)pyrimidin-4-yl)amino)-N-cyclopropyl-4-(cyclopropylamino)nicotinamide] | < 10 |
| Cc1noc(-c2cnc(Nc3cc(N)nc(C(F)F)n3)cc2NC(C)C)n1 [Compound 58, 2-(difluoromethyl)-N4-(4-(isopropylamino)-5-(3-methyl-1,2,4-oxadiazol-5-yl)pyridin-2-yl)pyrimidine-4,6-diamine] | > 40 |
| COc1cc(Nc2cc(N)nc(C(F)F)n2)ncc1-c1cnn(CCO)c1 [Compound 59, 2-(4-(6-((6-amino-2-(difluoromethyl)pyrimidin-4-yl)amino)-4-methoxypyridin-3-yl)-1H-pyrazol-1-yl)ethan-1-ol trifluoroacetate] | 10 to 40 |

From US20250270190A1, “KIT INHIBITORS” (BLUEPRINT MEDICINES CORPORATION, priority 2022, published 2025)
